For data set [1], the system named is E. coli (ATCC25922 and IH3080), K. pneumoniae ATCC13883, and E. cloacae ATCC23355. The data set is described as follows: E-test sensitization by NAB7061, range over the tested strains. Type of data set: cell-based. Conditions: four tested strains. On the procedure:
(§1) MICs were determined by using E-strips (Biodisk Ltd., Solna, Sweden) according to the manufacturer's instructions.

The subject of the next data set is E. cloacae ATCC23355. The data set is described as follows: E-test MIC with or without NAB7061 (4 μg/ml), Mueller-Hinton agar. Type of data set: cell-based, Enterobacter cloacae. On the procedure: as §1
(§2) The strains originated from ATCC (11 strains), CCUG (11 strains), and NCTC (The National Collection of Type Cultures, Colindale, U.K.; 2 strains). Eight strains (the F-strains) were purchased from Mobidiag Ltd., Helsinki, Finland.

In the next data set the test system is K. pneumoniae ATCC13883. The note with it: K. pneumoniae ATCC13883. On the procedure: as §1, §2
The test system of another data set is E. coli ATCC25922. The note with it: E. coli ATCC25922. On the procedure: as §1, §2
The test system of another data set is E. coli IH3080. The data set is described as follows: E-test MIC with or without NAB7061 (4 μg/ml), Mueller-Hinton agar. Type of data set: cell-based, Escherichia coli. As for the experimental part: as §1, §2
A further data set relates to A. baumannii F264. The data set is described as follows: E-test MIC of antibiotics on Mueller Hinton agar containing increasing concentrations of NAB739. Type of data set: cell-based, Acinetobacter baumannii.
The test system of data set [2] is both Acinetobacter strains (ATCC 19606 and F264). The data set is described as follows: E-test sensitization by NAB739, both strains. It counts as cell-based, Acinetobacter baumannii.
For the next data set, the system named is A. baumannii ATCC19606. The data set is described as follows: E-test MIC of antibiotics on Mueller Hinton agar containing increasing concentrations of NAB739. It counts as cell-based, Acinetobacter baumannii.
A further data set has as its system P. aeruginosa ATCC 27853. The description is as above. Type of data set: cell-based, Pseudomonas aeruginosa.
The next data set deals with Ac. baumannii ATCC19606. The data set is described as follows: E-test MIC with or without NAB7061 (4 μg/ml), Mueller-Hinton agar. Type of data set: cell-based, Acinetobacter baumannii. Conditions: for MIC of carbapenem at NAB 7061 concn 0 μg/ml: A. baumannii ATCC19606, absence of NAB 7061; for MIC of antibiotic in the presence of 4 μg/ml of NAB 7061: Ac. baumannii ATCC19606. On the procedure:
as §1, §2

In another data set the test system is Ac. baumannii F263. The description is as above. Type of data set: cell-based, Acinetobacter baumannii. Conditions: for MIC of carbapenem at NAB 7061 concn 0 μg/ml: A. baumannii F263, absence of NAB 7061; for MIC of antibiotic in the presence of 4 μg/ml of NAB 7061: Ac. baumannii F263. As for the experimental part: as §1, §2
In a further data set the test system is Ac. baumannii F264. The description is as above. It counts as cell-based, Acinetobacter baumannii. Conditions: for MIC of carbapenem at NAB 7061 concn 0 μg/ml: A. baumannii F264, absence of NAB 7061; for MIC of antibiotic in the presence of 4 μg/ml of NAB 7061: Ac. baumannii F264. On the procedure:
as §1, §2

The conditions of data set [3]: rat, Li et al. (2003), identical dosing and administration procedure, cited from earlier work.
The target of data set [4] is brush-border membrane (BBM) from the renal cortex. The data set is described as follows: Inhibition of binding of radiolabelled gentamycin to brush-border membrane vesicles. The note with it: rat renal cortex BBM vesicles; 20 μM [3H] gentamycin; 60 min at 4° C. An excerpt: The binding of the compounds according to this invention to isolated brush-border membrane (BBM) from the renal cortex can be measured indirectly by measuring their ability to inhibit the binding of radiolabelled gentamycin to BBM. Accordingly, the compounds according to this invention that have less affinity to BBM than for example polymyxin B inhibit the binding of radiolabelled gentamycin to a lesser degree than does polymyxin B.
BBM was isolated from the renal cortex of male albino rats by using the Mg^2+/EGTA precipitation technique as described by Nagai et al. (2006). The binding of gentamycin was measured, according to the method described by Nagai et al. (2006) by incubating BBM vesicles (20 μl) in 10 mM HEPES (pH 7.5) with 300 mM mannitol in the presence of 20 μM [^3H] gentamycin (American Radiolabeled Chemicals, Inc. (St. Louis, Mo., U.S.A.) with or without the compound to be tested or a positive control. After an incubation of 60 min at 4° C., 1 ml of ice-cold buffer described above was added, and the mixture was filtered through a Millipore filter (0.45 μm; HAWP). The filter was washed with the buffer and the radioactivity remaining in the filter was measured by using a liquid scintillation counter. The IC50 values were determined as in Nagai et al. (2006) using the Hill equation.

Read-outs that look alike come from different tables or passages of the source.

Turning to `CC[C@H]1OC(=O)[C@H](C)[C@@H](O[C@H]2C[C@@](C)(OC)[C@@H](O)[C@H](C)O2)[C@H](C)[C@@H](O[C@@H]2O[C@H](C)C[C@H](N(C)C)[C@H]2O)[C@](C)(O)C[C@@H](C)CN(C)[C@H](C)[C@@H](O)[C@]1(C)O` [Azithromycin], in data set [1], the “Sensitization factor to antibiotic at 4 μg/ml of NAB7061, range over the tested strains” value is 31-94. Further, the “Sensitization factor to antibiotic (MIC without / with 4 μg/ml of NAB 7061)” value is listed as 32 in the data set on E. cloacae ATCC23355, 31-43 in the data set on K. pneumoniae ATCC13883, 24-64 with E. coli ATCC25922 and 31-94 in the data set on E. coli IH3080.
With `CC(=O)O[C@H]1C[C@@]2(C)[C@@H](C[C@@H](O)[C@H]3[C@@]4(C)CC[C@@H](O)[C@@H](C)[C@@H]4CC[C@@]32C)/C1=C(\CCC=C(C)C)C(=O)O` [Fusidic acid], the “MIC of antibiotic in the presence of NAB739” value (“MIC of antibiotic … of NAB739” for short) in the data set on A. baumannii F264 (NAB 739 0 μg/ml) is greater than 256 µg/mL; in the data set with A. baumannii F264 (NAB 739 0.5 μg/ml), 3 µg/mL; in the data set with A. baumannii F264 (NAB 739 1 μg/ml), 1 µg/mL; in the data set with A. baumannii ATCC19606 (NAB 739 0 μg/ml), greater than 256 µg/mL; with A. baumannii ATCC19606 (NAB 739 0.5 μg/ml), 4 µg/mL; in the data set with A. baumannii ATCC19606 (NAB 739 1 μg/ml) it was 1 µg/mL. Moreover, the “MIC of antibiotic … of NAB739” value in the data set with P. aeruginosa ATCC 27853 (NAB 739 0 μg/ml) is greater than 256 µg/mL; in the data set with P. aeruginosa ATCC 27853 (NAB 739 0.5 μg/ml), greater than 256 µg/mL; with P. aeruginosa ATCC 27853 (NAB 739 1 μg/ml), greater than 256 µg/mL; in the data set on P. aeruginosa ATCC 27853 (NAB 739 2 μg/ml), 192 µg/mL; with P. aeruginosa ATCC 27853 (NAB 739 […]) it was greater than 256 µg/mL. The “sensitization factors to antibiotic at NAB739 0.5 μg/ml” value in data set [2] is 64-85. For the same compound, the “Sensitization factor to antibiotic (MIC without / with 4 μg/ml of NAB 7061)” value is listed as greater than 8 with E. cloacae ATCC23355, greater than 4 with K. pneumoniae ATCC13883, greater than 43 with E. coli ATCC25922 and greater than 43 in the data set with E. coli IH3080.
Take `C/C(=C\C(=O)OCCCCCCCCC(=O)O)C[C@@H]1OC[C@H](C[C@@H]2O[C@H]2[C@@H](C)[C@H](C)O)[C@@H](O)[C@H]1O` [Mupirocin]: the “Sensitization factor to antibiotic at 4 μg/ml of NAB7061, range over the tested strains” value in data set [1] is 24-512. Moreover, the “Sensitization factor to antibiotic (MIC without / with 4 μg/ml of NAB 7061)” value in the data set on E. cloacae ATCC23355 was 250-512; with K. pneumoniae ATCC13883, 24-32; with E. coli ATCC25922, 64-170; with E. coli IH3080 it was 64-85.
Turning to `CN[C@H](CC(C)C)C(=O)N[C@H]1C(=O)N[C@@H](CC(N)=O)C(=O)N[C@H]2C(=O)N[C@H]3C(=O)N[C@H](C(=O)N[C@H](C(=O)O)c4cc(O)cc(O)c4-c4cc3ccc4O)[C@H](O)c3ccc(c(Cl)c3)Oc3cc2cc(c3O[C@@H]2O[C@H](CO)[C@@H](O)[C@H](O)[C@H]2O[C@H]2C[C@](C)(N)[C@H](O)[C@H](C)O2)Oc2ccc(cc2Cl)[C@H]1O` [Vancomycin], the “MIC of antibiotic … of NAB739” value in the data set with A. baumannii F264 (NAB 739 0 μg/ml) was greater than 256 µg/mL; in the data set with A. baumannii F264 (NAB 739 0.5 μg/ml), 3 µg/mL; in the data set with A. baumannii F264 (NAB 739 1 μg/ml) it was 1 µg/mL; in the data set on A. baumannii ATCC19606 (NAB 739 0 μg/ml), greater than 256 µg/mL; in the data set with A. baumannii ATCC19606 (NAB 739 0.5 μg/ml), 3 µg/mL; in the data set with A. baumannii ATCC19606 (NAB 739 1 μg/ml), 1 µg/mL. Also, the “MIC of antibiotic … of NAB739” value in the data set with P. aeruginosa ATCC 27853 (NAB 739 0 μg/ml), in the data set on P. aeruginosa ATCC 27853 (NAB 739 0.5 μg/ml), in the data set on P. aeruginosa ATCC 27853 (NAB 739 1 μg/ml), in the data set with P. aeruginosa ATCC 27853 (NAB 739 2 μg/ml) and with P. aeruginosa ATCC 27853 (NAB 739 […]) was greater than 256 µg/mL in each case. Moreover, the “sensitization factors to antibiotic at NAB739 0.5 μg/ml” value in data set [2] was 85. For the same compound, the “Sensitization factor to antibiotic (MIC without / with 4 μg/ml of NAB 7061)” value in the data set with E. cloacae ATCC23355 came out at 32; in the data set with K. pneumoniae ATCC13883 it was 1; in the data set on E. coli ATCC25922, 5; in the data set with E. coli IH3080, 2.5.
On to `C[C@@H](O)[C@H]1C(=O)N2C(C(=O)O)=C(SCCN=CN)C[C@H]12` [imipenem], for which the “MIC of carbapenem at NAB 7061 concn 0 μg/ml” value in the data set with Ac. baumannii ATCC19606 is 0.38 µg/mL; in the data set on Ac. baumannii F263 it was greater than 32 µg/mL; in the data set with Ac. baumannii F264, 24 µg/mL. Moreover, the “MIC of antibiotic in the presence of 4 μg/ml of NAB 7061” value with Ac. baumannii ATCC19606 is 0.38 µg/mL; with Ac. baumannii F263, 8 µg/mL; with Ac. baumannii F264, 6 µg/mL.
`C[C@@H](O)[C@H]1C(=O)N2C(C(=O)O)=C(S[C@@H]3CN[C@H](C(=O)N(C)C)C3)[C@H](C)[C@H]12` [meropenem]: the “MIC of antibiotic … of NAB739” value with A. baumannii F264 (NAB 739 0 μg/ml) was greater than 32 µg/mL; in the data set with A. baumannii F264 (NAB 739 0.5 μg/ml), 1 µg/mL; in the data set on A. baumannii F264 (NAB 739 1 μg/ml), 0.38 µg/mL; in the data set on A. baumannii ATCC19606 (NAB 739 0 μg/ml), 1 µg/mL; in the data set with A. baumannii ATCC19606 (NAB 739 0.5 μg/ml), 0.25 µg/mL; in the data set on A. baumannii ATCC19606 (NAB 739 1 μg/ml), 0.125 µg/mL. In addition, the “MIC of antibiotic … of NAB739” value in the data set on P. aeruginosa ATCC 27853 (NAB 739 0 μg/ml), in the data set with P. aeruginosa ATCC 27853 (NAB 739 0.5 μg/ml), in the data set on P. aeruginosa ATCC 27853 (NAB 739 1 μg/ml), in the data set on P. aeruginosa ATCC 27853 (NAB 739 2 μg/ml) and with P. aeruginosa ATCC 27853 (NAB 739 […]) was 0.25 µg/mL in each case. Further, the results for the “MIC of carbapenem at NAB 7061 concn 0 μg/ml” value in the data set on Ac. baumannii ATCC19606, with Ac. baumannii F263 and in the data set on Ac. baumannii F264 were 1.5 µg/mL, greater than 32 µg/mL and 32 µg/mL, respectively. Also, the figures for the “MIC of antibiotic in the presence of 4 μg/ml of NAB 7061” value in the data set on Ac. baumannii ATCC19606, with Ac. baumannii F263 and in the data set on Ac. baumannii F264 were 0.75 µg/mL, 6 µg/mL and 4 µg/mL, respectively.
The clearance is a measure of how efficiently the substance is removed, as volume per time. The term half-life denotes how long it takes for the measured level to halve. Consider Colistin (polymyxin E), for which, in [3], the clearance was 5.2 ± 0.4 mL/min/kg, the half-life was 1.24 ± 0.22 h, the renal clearance was 0.010 ± 0.008 mL/min/kg and the urinary recovery is 0.18±0.14 % of dose in 24 h. The volume of distribution in [3] is 0.496 ± 0.06 L/kg. In addition, in [3] (listed as polymyxin E (colistin)), the urinary recovery entry is given as “about 0.18±0.14 % of dose in 24 h”.
By IC50 is commonly meant the midpoint of a concentration-inhibition curve. Higher therefore signals lower potency. The compound gentamycin [reference compound] came in with an IC50 in data set [4] of 90.2 ± 9.7 µM.
